Reference: publication PMC11550005, “On the function of TRAP substrate-binding proteins: Conformational variation of the sialic acid binding protein SiaP” (The Journal of Biological Chemistry, 2024)

Columns and labels:
[1] = target: T1, AaSiaP (TRAP N-acetylneuraminate substrate-binding protein SiaP) (Aggregatibacter actinomycetemcomitans, UniProt A0A5D0EK58); set-up: gene ACT75_01630
[2] = target: T1, AaSiaP (TRAP N-acetylneuraminate substrate-binding protein SiaP); experiment: microscale thermophoresis; also crystal structure ([…] A), DSF, SAXS; set-up: gene ACT75_01630; mature chain without native signal peptide (replaced by pelB), residual N-terminal Met-Asp; strain 624, WP_005538762.1
[3] = target: T1, AaSiaP (TRAP N-acetylneuraminate substrate-binding protein SiaP); experiment: microscale thermophoresis; set-up: gene ACT75_01630; mature chain without native signal peptide (replaced by pelB), residual N-terminal Met-Asp; strain 624, WP_005538762.1

T1 sequence (A0A5D0EK58 entry or part of it): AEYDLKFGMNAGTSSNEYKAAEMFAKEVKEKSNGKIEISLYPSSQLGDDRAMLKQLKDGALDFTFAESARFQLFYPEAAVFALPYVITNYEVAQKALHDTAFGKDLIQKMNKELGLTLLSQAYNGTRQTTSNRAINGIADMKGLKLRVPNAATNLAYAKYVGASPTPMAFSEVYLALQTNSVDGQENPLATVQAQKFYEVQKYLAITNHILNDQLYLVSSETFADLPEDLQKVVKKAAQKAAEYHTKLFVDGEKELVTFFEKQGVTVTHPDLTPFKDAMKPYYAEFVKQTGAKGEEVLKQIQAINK

CC(=O)O [acetate]
crystal structure (2.58 A, chains A and B); acetate from the crystallization cond [1]: Acetate makes favorable interactions with residues R127, R147, and N189 on domain II within the binding site of AaSiaP

CC(=O)N[C@H]1[C@H]([C@H](O)[C@H](O)CO)O[C@](O)(C(=O)O)C[C@@H]1O [Neu5Ac, N-acetylneuraminate]
Kd [2]: 430 nM

O=C(CO)N[C@H]1[C@H]([C@H](O)[C@H](O)CO)O[C@@](O)(C(=O)O)C[C@@H]1O [Neu5Gc, N-glycolylneuraminate]
Kd [3]: 4400 nM
